Data published in patent publication US20230139445A1, “BACTERIAL CELLS WITH IMPROVED TOLERANCE TO DIACIDS” (priority 2016, published 2023).
Like-named read-outs stand apart in the source and are kept apart here.

How the values were obtained:
[1] = system: Escherichia coli K-12 MG1655; assay: Growth of K-12 MG1655 in varying concentrations of fumaric, itaconic, malic and succinic acid, Growth Profiler; format: cell-based
Method: (§1) Five colonies from wild-type K-12 MG1655 and 10 individual colonies deriving from each population were inoculated into 300 μL M9+1% glucose in 96 well deepwell plates and incubated in a 300 rpm plate shaker at 37° C. The next day, cells were diluted 10× in M9+1% glucose and 30 μL was transferred into clear-bottomed 96 well half-deepwell plates (with rectangular wells) containing M9+1% glucose and M9+1% glucose+52.78 g/L glutaric acid or 55.56 g/L adipic acid, such that the final concentration of glutaric acid or adipic acid was 47.5 g/L or 50 g/L, respectively. In addition, cryogenic glycerol stocks of the overnight culture were saved in a 96 well plate format. Half deepwell plates were incubated at 37° C. with 225 rpm shaking in a Growth Profiler (Enzyscreen), with optical scans of the plates taken at 15 minute intervals. Green pixel values integrated over a 1 mm diameter circular area in each well were converted to OD600 values using a previously determined calibration between OD600 and green pixel values.
(§2) Additionally, each evolved isolate was tested for cross-tolerance toward other dicarboxylic acids of interest. […] All diacids tested were either the neutral sodium salts, or the free diacid was neutralized with sodium hydroxide to pH 7.0 for testing.

[2] = system: Escherichia coli K-12 MG1655 and evolved isolates; format: cell-based; conditions: 50 g/L succinic acid
Method: as §1, §2

SMILES: O=C(O)CCC(=O)O [succinic acid]
- μ (mean) ([1]; growth rate of K-12 MG1655, 10 g/L diacid (sodium salt)): 0.665 h^1
- μ (mean) ([1]; growth rate of K-12 MG1655, 20 g/L diacid (sodium salt)): 0.610 h^1
- μ (mean) ([1]; growth rate of K-12 MG1655, 30 g/L diacid (sodium salt)): 0.496 h^1
- μ (mean) ([1]; growth rate of K-12 MG1655, 40 g/L diacid (sodium salt)): 0.345 h^1
- μ (mean) ([1]; growth rate of K-12 MG1655, 50 g/L diacid (sodium salt)): 0.179 h^1
- μ (mean) ([1]; growth rate of K-12 MG1655, 60 g/L diacid (sodium salt)): 0.127 h^1
- tlag (mean) ([1]; lag time of K-12 MG1655, 10 g/L diacid (sodium salt)): 5.4 h
- tlag (mean) ([1]; lag time of K-12 MG1655, 20 g/L diacid (sodium salt)): 6.7 h
- tlag (mean) ([1]; lag time of K-12 MG1655, 30 g/L diacid (sodium salt)): 8.9 h
- tlag (mean) ([1]; lag time of K-12 MG1655, 40 g/L diacid (sodium salt)): 13.4 h
- tlag (mean) ([1]; lag time of K-12 MG1655, 50 g/L diacid (sodium salt)): 22.4 h
- tlag (mean) ([1]; lag time of K-12 MG1655, 60 g/L diacid (sodium salt)): 42.5 h
- growth rate μ (mean) ([2]; strain ADIP1-1): 0.299 h⁻¹
- lag time tlag (mean) ([2]; strain ADIP1-1): 16.1 h
- growth rate μ (mean) ([2]; strain ADIP1-9): 0.290 h⁻¹
- lag time tlag (mean) ([2]; strain ADIP1-9): 14.5 h
- growth rate μ (mean) ([2]; strain ADIP2-5): 0.260 h⁻¹
- lag time tlag (mean) ([2]; strain ADIP2-5): 25.5 h
- growth rate μ (mean) ([2]; strain ADIP2-6): 0.278 h⁻¹
- lag time tlag (mean) ([2]; strain ADIP2-6): 21.7 h
- growth rate μ (mean) ([2]; strain ADIP2-10): 0.262 h⁻¹
- lag time tlag (mean) ([2]; strain ADIP2-10): 22.0 h
- growth rate μ (mean) ([2]; strain ADIP3-2): 0.311 h⁻¹
- lag time tlag (mean) ([2]; strain ADIP3-2): 13.2 h
- growth rate μ (mean) ([2]; strain ADIP3-4): 0.308 h⁻¹
- lag time tlag (mean) ([2]; strain ADIP3-4): 12.7 h
- growth rate μ (mean) ([2]; strain ADIP3-8): 0.304 h⁻¹
- lag time tlag (mean) ([2]; strain ADIP3-8): 13.8 h
- growth rate μ (mean) ([2]; strain ADIP4-1): 0.206 h⁻¹
- lag time tlag (mean) ([2]; strain ADIP4-1): 15.7 h
- growth rate μ (mean) ([2]; strain ADIP4-8): 0.228 h⁻¹
- lag time tlag (mean) ([2]; strain ADIP4-8): 15.8 h
- growth rate μ (mean) ([2]; strain ADIP5-2): 0.192 h⁻¹
- lag time tlag (mean) ([2]; strain ADIP5-2): 13.5 h
- growth rate μ (mean) ([2]; strain ADIP5-6): 0.361 h⁻¹
- lag time tlag (mean) ([2]; strain ADIP5-6): 12.1 h
- growth rate μ (mean) ([2]; strain ADIP6-3): 0.246 h⁻¹
- lag time tlag (mean) ([2]; strain ADIP6-3): 14.9 h
- growth rate μ (mean) ([2]; strain ADIP6-9): 0.210 h⁻¹
- lag time tlag (mean) ([2]; strain ADIP6-9): 18.4 h
- growth rate μ (mean) ([2]; strain ADIP6-10): 0.285 h⁻¹
- lag time tlag (mean) ([2]; strain ADIP6-10): 12.4 h
- growth rate μ (mean) ([2]; strain ADIP7-2): 0.294 h⁻¹
- lag time tlag (mean) ([2]; strain ADIP7-2): 12.5 h
- growth rate μ (mean) ([2]; strain ADIP7-5): 0.274 h⁻¹
- lag time tlag (mean) ([2]; strain ADIP7-5): 12.4 h
- growth rate μ (mean) ([2]; strain ADIP8-3): 0.146 h⁻¹
- lag time tlag (mean) ([2]; strain ADIP8-3): 22.1 h
- growth rate μ (mean) ([2]; strain ADIP8-7): 0.163 h⁻¹
- lag time tlag (mean) ([2]; strain ADIP8-7): 23.2 h
- growth rate μ (mean) ([2]; strain ADIP8-10): 0.131 h⁻¹
- lag time tlag (mean) ([2]; strain ADIP8-10): 20.0 h
- growth rate μ (mean) ([2]; strain GLUT1-3): 0.231 h⁻¹
- lag time tlag (mean) ([2]; strain GLUT1-3): 14.5 h
- growth rate μ (mean) ([2]; strain GLUT1-9): 0.194 h⁻¹
- lag time tlag (mean) ([2]; strain GLUT1-9): 20.8 h
- growth rate μ (mean) ([2]; strain GLUT1-10): 0.246 h⁻¹
- lag time tlag (mean) ([2]; strain GLUT1-10): 20.0 h
- growth rate μ (mean) ([2]; strain GLUT2-1): 0.232 h⁻¹
- lag time tlag (mean) ([2]; strain GLUT2-1): 14.7 h
- growth rate μ (mean) ([2]; strain GLUT2-9): 0.213 h⁻¹
- lag time tlag (mean) ([2]; strain GLUT2-9): 14.4 h
- growth rate μ (mean) ([2]; strain GLUT2-10): 0.277 h⁻¹
- lag time tlag (mean) ([2]; strain GLUT2-10): 13.4 h
- growth rate μ (mean) ([2]; strain GLUT3-5): 0.242 h⁻¹
- lag time tlag (mean) ([2]; strain GLUT3-5): 16.1 h
- growth rate μ (mean) ([2]; strain GLUT3-7): 0.235 h⁻¹
- lag time tlag (mean) ([2]; strain GLUT3-7): 15.3 h
- growth rate μ (mean) ([2]; strain GLUT3-9): 0.221 h⁻¹
- lag time tlag (mean) ([2]; strain GLUT3-9): 20.6 h
- growth rate μ (mean) ([2]; strain GLUT4-1): 0.263 h⁻¹
- lag time tlag (mean) ([2]; strain GLUT4-1): 16.3 h
- growth rate μ (mean) ([2]; strain GLUT4-4): 0.242 h⁻¹
- lag time tlag (mean) ([2]; strain GLUT4-4): 16.6 h
- growth rate μ (mean) ([2]; strain GLUT4-10): 0.231 h⁻¹
- lag time tlag (mean) ([2]; strain GLUT4-10): 15.7 h
- growth rate μ (mean) ([2]; strain GLUT5-4): 0.281 h⁻¹
- lag time tlag (mean) ([2]; strain GLUT5-4): 17.0 h
- growth rate μ (mean) ([2]; strain GLUT5-5): 0.264 h⁻¹
- lag time tlag (mean) ([2]; strain GLUT5-5): 18.4 h
- growth rate μ (mean) ([2]; strain GLUT5-9): 0.244 h⁻¹
- lag time tlag (mean) ([2]; strain GLUT5-9): 18.4 h
- growth rate μ (mean) ([2]; strain GLUT6-4): 0.241 h⁻¹
- lag time tlag (mean) ([2]; strain GLUT6-4): 14.2 h
- growth rate μ (mean) ([2]; strain GLUT6-5): 0.243 h⁻¹
- lag time tlag (mean) ([2]; strain GLUT6-5): 13.9 h
- growth rate μ (mean) ([2]; strain GLUT6-10): 0.211 h⁻¹
- lag time tlag (mean) ([2]; strain GLUT6-10): 14.4 h
- growth rate μ (mean) ([2]; strain GLUT7-2): 0.223 h⁻¹
- lag time tlag (mean) ([2]; strain GLUT7-2): 14.9 h
- growth rate μ (mean) ([2]; strain GLUT7-6): 0.195 h⁻¹
- lag time tlag (mean) ([2]; strain GLUT7-6): 17.8 h
- growth rate μ (mean) ([2]; strain GLUT7-7): 0.156 h⁻¹
- lag time tlag (mean) ([2]; strain GLUT7-7): 19.9 h
- growth rate μ (mean) ([2]; strain GLUT8-5): 0.198 h⁻¹
- lag time tlag (mean) ([2]; strain GLUT8-5): 16.4 h
- growth rate μ (mean) ([2]; strain GLUT8-6): 0.236 h⁻¹
- lag time tlag (mean) ([2]; strain GLUT8-6): 34.1 h
- growth rate μ (mean) ([2]; strain GLUT8-9): 0.250 h⁻¹
- lag time tlag (mean) ([2]; strain GLUT8-9): 38.0 h
- growth rate μ (mean) ([2]; strain MG1655 (Table 28)): 0.169 h⁻¹
- lag time tlag (mean) ([2]; strain MG1655 (Table 28)): 20.2 h
- growth rate μ (mean) ([2]; strain MG1655 (Table 29)): 0.143 h⁻¹
- lag time tlag (mean) ([2]; strain MG1655 (Table 29)): 23.8 h
